Experimental data: ChEMBL document CHEMBL1201862, “PubChem BioAssay data set” (2004)
Calls of active or inactive are those of the source.

Assays:
[1] = cytotoxicity in HPDE-C7 cells, cell-based, fluorescence, HTS (AID 430); type: functional; conditions: Homo sapiens
[2] = cytotoxicity in KRAS-transformed pancreatic duct cells, primary screen, cell-based, fluorescence, HTS (AID 431); type: functional; conditions: Homo sapiens;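 further: cell line used: HPDE-C7K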
[3] = growth suppression of PTEN-null colon cells, dose response, cell-based, HCT116 PTEN knockout (AID 1047); type: functional;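 further: HCT116 colon tumor cells with PTEN knocked out; cells exposed to compound for 60 hours before readout; potency for loss of cell viability measured by luminescence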
[4] = growth suppression of beta-catenin-knockout colon cells, dose response, cell-based, HCT116, human colon tumor (AID 1045); type: functional;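 further: HCT116 colon tumor cells with beta catenin knocked out; cells exposed to compound for 60 hours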
[5] = biological target: T1, Low molecular weight phosphotyrosine protein phosphatase (Homo sapiens, UniProt P24666); type: functional; conditions: read-out: IC50_Mean;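 further: Dose-response confirmation assay measuring inhibition of LMPTP enzyme activity by fluorescence intensity read-out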
T1 sequence (P24666 whole entry): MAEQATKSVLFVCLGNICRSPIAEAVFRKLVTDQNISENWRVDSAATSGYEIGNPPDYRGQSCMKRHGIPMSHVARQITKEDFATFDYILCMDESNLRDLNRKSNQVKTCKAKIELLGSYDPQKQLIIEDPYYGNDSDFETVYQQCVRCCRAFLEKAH

[6] = biological target: T2, Tyrosine-protein phosphatase non-receptor type 22 (Homo sapiens, UniProt Q9Y2R2); test: LYP phosphatase inhibition for selectivity, dose response, selectivity assay for LMPTP inhibitor project, biochemical, fluorescence, LYP catalytic domain (AID 652006); type: functional; conditions: read-out: IC50_Mean
T2 sequence (Q9Y2R2 whole entry): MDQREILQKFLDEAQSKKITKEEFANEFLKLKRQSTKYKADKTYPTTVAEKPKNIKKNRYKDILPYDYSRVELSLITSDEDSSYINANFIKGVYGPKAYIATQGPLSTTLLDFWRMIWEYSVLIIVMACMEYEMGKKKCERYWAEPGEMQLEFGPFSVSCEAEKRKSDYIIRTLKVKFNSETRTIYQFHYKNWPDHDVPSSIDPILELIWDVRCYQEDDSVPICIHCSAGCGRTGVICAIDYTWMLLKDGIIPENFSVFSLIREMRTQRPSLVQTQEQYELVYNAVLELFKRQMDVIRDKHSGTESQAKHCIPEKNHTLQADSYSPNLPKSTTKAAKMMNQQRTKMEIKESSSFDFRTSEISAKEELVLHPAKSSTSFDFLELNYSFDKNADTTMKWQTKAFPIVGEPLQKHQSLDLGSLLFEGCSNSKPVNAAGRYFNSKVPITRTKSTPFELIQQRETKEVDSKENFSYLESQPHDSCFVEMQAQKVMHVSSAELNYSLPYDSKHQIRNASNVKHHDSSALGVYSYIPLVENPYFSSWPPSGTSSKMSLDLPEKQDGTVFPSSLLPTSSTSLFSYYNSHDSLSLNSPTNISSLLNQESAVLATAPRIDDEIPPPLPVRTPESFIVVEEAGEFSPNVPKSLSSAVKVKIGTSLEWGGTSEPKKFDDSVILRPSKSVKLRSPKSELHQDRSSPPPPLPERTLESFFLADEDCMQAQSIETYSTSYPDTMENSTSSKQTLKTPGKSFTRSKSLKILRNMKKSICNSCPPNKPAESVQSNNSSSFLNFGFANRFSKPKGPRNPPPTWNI

[7] = Luminescence Cell-Based Dose Retest to Confirm Inhibitors of Cancer Stem Cells. [Related pubchem assays (depositor defined):AID2717, AID2721]; type: functional; conditions: Homo sapiens
[8] = biological target: Photoreceptor-specific nuclear receptor (Homo sapiens, UniProt Q9Y5X4); type: functional, cell-based;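 further: CHO-S cells with Gal4-NCOR and VP16-NR2E3 two-hybrid luciferase reporter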
Photoreceptor-specific nuclear receptor, sequence (Q9Y5X4 whole entry, the tested form may be a part): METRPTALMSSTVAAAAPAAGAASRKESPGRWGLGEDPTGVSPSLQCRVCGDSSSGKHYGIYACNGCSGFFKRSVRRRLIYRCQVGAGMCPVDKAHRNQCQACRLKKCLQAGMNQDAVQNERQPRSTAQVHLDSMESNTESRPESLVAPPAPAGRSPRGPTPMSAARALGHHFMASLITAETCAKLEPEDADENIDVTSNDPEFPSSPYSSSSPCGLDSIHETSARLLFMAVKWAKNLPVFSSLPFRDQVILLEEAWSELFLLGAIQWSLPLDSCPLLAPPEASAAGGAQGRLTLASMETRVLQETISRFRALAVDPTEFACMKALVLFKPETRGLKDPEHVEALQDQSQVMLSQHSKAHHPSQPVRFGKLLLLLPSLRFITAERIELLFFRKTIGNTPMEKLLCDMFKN

[9] = biological target: T3, Small ubiquitin-related modifier 1 (Homo sapiens, UniProt P63165); test: inhibitors of SUMO1 peptide binding, dose response, biochemical, fluorescence polarization, uHTS hits (AID 624382); type: functional; conditions: read-out: IC50_Mean
T3 sequence (P63165 whole entry): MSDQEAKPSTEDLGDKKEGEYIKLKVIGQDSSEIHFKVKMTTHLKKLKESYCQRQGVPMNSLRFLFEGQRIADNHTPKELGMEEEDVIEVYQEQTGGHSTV

[10] = biological target: T3, Small ubiquitin-related modifier 1; test: inhibitors of SUMO1 partner interactions, dose response, biochemical, FRET (AID 624383); type: functional; conditions: read-out: IC50_Mean
[11] = biological target: Mu-type opioid receptor (Homo sapiens, UniProt P35372); type: functional, cell-based;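 further: U2OS cells with beta-arrestin recruitment to OPRM1 by beta-gal complementation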
Mu-type opioid receptor, sequence (P35372 whole entry): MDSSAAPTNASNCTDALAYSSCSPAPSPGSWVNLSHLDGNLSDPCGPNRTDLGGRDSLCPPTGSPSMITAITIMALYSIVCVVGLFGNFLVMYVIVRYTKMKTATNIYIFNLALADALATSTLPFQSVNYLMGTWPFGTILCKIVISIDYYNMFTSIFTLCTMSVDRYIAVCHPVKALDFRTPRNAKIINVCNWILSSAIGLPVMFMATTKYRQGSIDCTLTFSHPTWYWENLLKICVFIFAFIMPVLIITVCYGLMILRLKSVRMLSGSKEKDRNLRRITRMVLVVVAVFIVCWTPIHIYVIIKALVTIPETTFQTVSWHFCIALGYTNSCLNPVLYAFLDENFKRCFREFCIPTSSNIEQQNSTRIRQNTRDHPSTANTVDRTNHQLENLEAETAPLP

[12] = biological target: 5-hydroxytryptamine receptor 2A (Mus musculus, UniProt P35363); type: functional, cell-based;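 further: CHO-K1 cells with tagged receptor and beta-arrestin; agonist potency measured as compound-induced activation of the receptor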
5-hydroxytryptamine receptor 2A, sequence (P35363 whole entry): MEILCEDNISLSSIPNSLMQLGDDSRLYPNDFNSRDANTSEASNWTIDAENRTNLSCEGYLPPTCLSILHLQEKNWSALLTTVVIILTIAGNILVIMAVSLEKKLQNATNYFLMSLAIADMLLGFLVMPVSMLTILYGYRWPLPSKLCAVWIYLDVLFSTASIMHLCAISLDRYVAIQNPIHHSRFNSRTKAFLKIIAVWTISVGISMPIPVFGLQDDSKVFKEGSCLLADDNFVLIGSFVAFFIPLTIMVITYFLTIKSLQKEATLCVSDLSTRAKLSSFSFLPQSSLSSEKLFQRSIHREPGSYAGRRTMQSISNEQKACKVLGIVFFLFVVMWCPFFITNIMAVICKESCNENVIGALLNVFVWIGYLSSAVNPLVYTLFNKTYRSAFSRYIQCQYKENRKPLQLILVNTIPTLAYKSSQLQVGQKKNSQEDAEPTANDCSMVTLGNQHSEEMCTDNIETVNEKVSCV

[13] = biological target: Tyrosine-protein phosphatase non-receptor type 11 (Homo sapiens, UniProt Q06124); test: SHP2 phosphatase inhibition, dose response, selectivity assay for STEP inhibitor project, biochemical (AID 602367); type: functional; conditions: read-out: IC50_Mean
Tyrosine-protein phosphatase non-receptor type 11, sequence (Q06124 whole entry): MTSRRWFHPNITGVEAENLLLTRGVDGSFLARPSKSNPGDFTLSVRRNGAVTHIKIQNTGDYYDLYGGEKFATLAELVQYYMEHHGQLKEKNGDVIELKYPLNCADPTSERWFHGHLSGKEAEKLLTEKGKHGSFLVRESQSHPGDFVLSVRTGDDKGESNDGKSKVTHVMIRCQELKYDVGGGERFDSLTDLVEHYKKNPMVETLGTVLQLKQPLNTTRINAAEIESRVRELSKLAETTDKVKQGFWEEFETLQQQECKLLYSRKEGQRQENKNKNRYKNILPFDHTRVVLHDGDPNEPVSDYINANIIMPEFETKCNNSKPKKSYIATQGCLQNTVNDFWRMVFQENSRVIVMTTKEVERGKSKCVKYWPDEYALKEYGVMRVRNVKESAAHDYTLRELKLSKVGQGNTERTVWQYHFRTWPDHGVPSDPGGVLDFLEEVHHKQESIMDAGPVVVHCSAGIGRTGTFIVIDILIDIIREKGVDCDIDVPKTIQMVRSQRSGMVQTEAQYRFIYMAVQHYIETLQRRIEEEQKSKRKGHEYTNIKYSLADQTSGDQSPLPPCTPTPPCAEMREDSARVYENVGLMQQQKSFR

[14] = biological target: Tyrosine-protein phosphatase non-receptor type 5 (Homo sapiens, UniProt P54829); test: STEP phosphatase inhibitors, confirmation, biochemical, fluorescence intensity, uHTS hits (AID 602372); type: functional; conditions: read-out: IC50_Mean
Tyrosine-protein phosphatase non-receptor type 5, sequence (P54829 whole entry): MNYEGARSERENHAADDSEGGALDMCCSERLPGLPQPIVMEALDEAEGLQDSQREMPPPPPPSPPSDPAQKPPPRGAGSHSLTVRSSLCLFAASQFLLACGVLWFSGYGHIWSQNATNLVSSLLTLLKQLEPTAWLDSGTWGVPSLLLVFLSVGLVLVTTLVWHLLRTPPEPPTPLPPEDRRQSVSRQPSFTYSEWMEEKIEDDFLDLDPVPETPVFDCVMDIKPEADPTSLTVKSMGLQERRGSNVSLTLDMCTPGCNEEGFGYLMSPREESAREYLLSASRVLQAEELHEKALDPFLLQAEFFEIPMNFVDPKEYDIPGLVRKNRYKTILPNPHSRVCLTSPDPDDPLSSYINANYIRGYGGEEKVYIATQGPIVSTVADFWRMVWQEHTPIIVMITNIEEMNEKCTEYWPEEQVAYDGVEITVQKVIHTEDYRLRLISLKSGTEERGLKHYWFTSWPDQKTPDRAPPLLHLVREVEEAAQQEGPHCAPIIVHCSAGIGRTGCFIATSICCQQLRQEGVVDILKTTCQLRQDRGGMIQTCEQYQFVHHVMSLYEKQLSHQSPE

[15] = biological target: Dual specificity protein phosphatase 3 (Homo sapiens, UniProt P51452); test: VHR phosphatase inhibition, dose response, selectivity assay for STEP inhibitor project, biochemical (AID 602374); type: functional; conditions: read-out: IC50_Mean
Dual specificity protein phosphatase 3, sequence (P51452 whole entry): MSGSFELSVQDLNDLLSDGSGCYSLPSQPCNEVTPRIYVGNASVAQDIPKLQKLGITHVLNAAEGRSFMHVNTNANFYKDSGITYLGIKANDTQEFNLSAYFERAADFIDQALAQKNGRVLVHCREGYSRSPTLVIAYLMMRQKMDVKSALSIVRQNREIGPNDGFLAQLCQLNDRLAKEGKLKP

[16] = biological target: T2, Tyrosine-protein phosphatase non-receptor type 22; test: PTPN22 phosphatase inhibition, dose response, selectivity assay for STEP inhibitor project, biochemical (AID 624241); type: functional
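Wherever AC50 is given: cells exposed to compound for roughly 70 hours or longer before luminescence read.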

CC(=O)Nc1ccc(S(=O)(=O)N2CCN(c3nc(NC4CCCC4)c4ccccc4n3)CC2)cc1
EC50 [1]: 12.4 µM (active) | EC50 [2]: 13.2 µM (active) | EC50 [3]: 13.7 µM (active) | EC50 [4]: 12.7 µM (active) | IC50 [5]: 20.7 µM (inactive) | IC50 [6]: 28.2 µM (inactive)

CCc1ccccc1Nc1nn2c(=O)c3ccc(C(=O)NCc4ccccn4)cc3nc2s1
AC50 [7]: 0.343 µM (active) | IC50 [8]: 13.1 µM (inactive) | IC50 [9]: > 66.6 µM (inactive) | IC50 [10]: 10.4 µM (active)

Cc1ccccc1C(=O)O/N=C(\c1ccccc1)c1ccccn1
EC50 [11]: 92.5 µM (inactive) | EC50 [12]: 20.2 µM (inactive)

CC1=C(C(=O)OC(C)C)C(c2ccc(Cl)cc2)n2c(s/c(=C\c3ccc(OCC(=O)O)cc3)c2=O)=N1 (stereo not drawn)
IC50 [13]: 3.24 µM (active) | IC50 [14]: 4.68 µM (active) | IC50 [15]: 3.02 µM (active) | IC50 [9]: > 66.6 µM (inactive) | IC50 [10]: 7.22 µM (active) | IC50 [16]: 14.7 µM (active)
